In US11753407B2, “Compounds for treating spinal muscular atrophy” (PTC Therapeutics, Inc., priority 2012, dated 2023):

How the values were obtained:
[1] = system: SMN2 minigene mRNA (SMN2-A minigene) in HEK293H cells; assay: SMN2 minigene mRNA splicing RT-qPCR assay in cultured cells; assay type: cell-based, human; settings: Homo sapiens, HEK293-H; concentration increasing full length SMN2 mRNA 1.5-fold relative to vehicle-treated cells; HEK293H cells with SMN2-A minigene, 24 hours, 7-point concentration data; read-out: EC1.5x for production of full length SMN2 mRNA
Outline: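 Potency reflects the concentration that lifts full-length SMN2 minigene mRNA 1.5-fold above vehicle in stably transfected HEK293H cells after 24 h of treatment. Transcript abundance came from RT-qPCR as (1+E)^−Ct, normalized to GAPDH; endogenous SMN1/SMN2 are not detected.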

[2] = system: Smn protein in SMA patient fibroblast cells (GM03813); assay: Smn protein assay in cultured cells (SMN HTRF); assay type: cell-based, human; settings: SMA patient fibroblast cells, 48 hours; for EC1.5x for Smn protein expression: 7-point concentration curve, SMN HTRF, concentration producing 1.5 times Smn protein vs DMSO vehicle control; for maximum fold (Fold) increase of Smn protein: 7-point concentration data, fold relative to vehicle control
Outline: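 Smn protein abundance in treated SMA fibroblasts was measured by HTRF after 48 h compound exposure. The reported EC1.5× is the concentration producing 1.5 times vehicle Smn levels.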

Structure (SMILES) | melting point [°C] | EC (1.5-fold increase) [1] [µM] | EC1.5x for Smn protein expression [2] | maximum fold (Fold) increase of Smn protein [2]
Cc1cc(C2CCN(C)CC2)cn2c(=O)cc(-c3ccc4nn(C)cc4c3)nc12 [Compound 705, 9-methyl-2-(2-methyl-2H-indazol-5-yl)-7-(1-methylpiperidin-4-yl)-4H-pyrido[1,2-a]pyrimidin-4-one] | 222 to 227 | < 0.1 | **** (an EC1.5x≤0.3 μM is indicated by four stars (****)) | ***** (a fold increase >1.65 is indicated by five stars (*****))
Cc1cn2nc(-c3cc(=O)n4cc(N5CCC(C)(N(C)C)CC5)ccc4n3)cc2c(C)n1 [Compound 706, 7-[4-(dimethylamino)-4-methylpiperidin-1-yl]-2-(4,6-dimethylpyrazolo[1,5-a]pyrazin-2-yl)-4H-pyrido[1,2-a]pyrimidin-4-one] | 237 to 239 | < 0.1 | **** (an EC1.5x≤0.3 μM is indicated by four stars (****)) | ***** (a fold increase >1.65 is indicated by five stars (*****))
CCNC1(C)CCN(c2ccc3nc(-c4cc5c(C)nc(C)cn5n4)cc(=O)n3c2)CC1 [Compound 707, 2-(4,6-dimethylpyrazolo[1,5-a]pyrazin-2-yl)-7-[4-(ethylamino)-4-methylpiperidin-1-yl]-4H-pyrido[1,2-a]pyrimidin-4-one] | 187 to 189 | < 0.1 | **** (an EC1.5x≤0.3 μM is indicated by four stars (****)) | ***** (a fold increase >1.65 is indicated by five stars (*****))
CCCNC1(C)CCN(c2ccc3nc(-c4cc5c(C)nc(C)cn5n4)cc(=O)n3c2)CC1 [Compound 708, 2-(4,6-dimethylpyrazolo[1,5-a]pyrazin-2-yl)-7-[4-methyl-4-(propylamino)piperidin-1-yl]-4H-pyrido[1,2-a]pyrimidin-4-one] | 181 to 183 | < 0.1 | **** (an EC1.5x≤0.3 μM is indicated by four stars (****)) | ***** (a fold increase >1.65 is indicated by five stars (*****))
Cc1cn2nc(-c3cc(=O)n4cc(N5CCC(C)(NCCO)CC5)ccc4n3)cc2c(C)n1 [Compound 709, 2-(4,6-dimethylpyrazolo[1,5-a]pyrazin-2-yl)-7-{4-[(2-hydroxyethyl)amino]-4-methylpiperidin-1-yl}-4H-pyrido[1,2-a]pyrimidin-4-one] | 196 to 198 | < 0.1 | **** (an EC1.5x≤0.3 μM is indicated by four stars (****)) | ***** (a fold increase >1.65 is indicated by five stars (*****))
Cc1cc(C2CCN(C3CCC3)CC2)cn2c(=O)cc(-c3ccc4nn(C)cc4c3)nc12 [Compound 710, 7-(1-cyclobutylpiperidin-4-yl)-9-methyl-2-(2-methyl-2H-indazol-5-yl)-4H-pyrido[1,2-a]pyrimidin-4-one] | 232 to 235 | < 0.1 | **** (an EC1.5x≤0.3 μM is indicated by four stars (****)) | ***** (a fold increase >1.65 is indicated by five stars (*****))
Cc1cc(C2CCN(CCO)CC2)cn2c(=O)cc(-c3ccc4nn(C)cc4c3)nc12 [Compound 711, 7-[1-(2-hydroxyethyl)piperidin-4-yl]-9-methyl-2-(2-methyl-2H-indazol-5-yl)-4H-pyrido[1,2-a]pyrimidin-4-one] | 216 to 222 | < 0.1 | **** (an EC1.5x≤0.3 μM is indicated by four stars (****)) | ***** (a fold increase >1.65 is indicated by five stars (*****))
CCCN1CCC(c2cc(C)c3nc(-c4cc5c(C)nc(C)cn5n4)cc(=O)n3c2)CC1 [Compound 712, 2-(4,6-dimethylpyrazolo[1,5-a]pyrazin-2-yl)-9-methyl-7-(1-propylpiperidin-4-yl)-4H-pyrido[1,2-a]pyrimidin-4-one] | 216 to 223 | < 0.1 | **** (an EC1.5x≤0.3 μM is indicated by four stars (****)) | ***** (a fold increase >1.65 is indicated by five stars (*****))
Cc1cn2cc(-c3cc(=O)n4cc(N5CCN[C@H](C)C5)ccc4n3)cc(C3CC3)c2n1 [Compound 715, 2-(8-cyclopropyl-2-methylimidazo[1,2-a]pyridin-6-yl)-7-[(3R)-3-methylpiperazin-1-yl]-4H-pyrido[1,2-a]pyrimidin-4-one] | 246 to 250 | < 0.1 | **** (an EC1.5x≤0.3 μM is indicated by four stars (****)) | ***** (a fold increase >1.65 is indicated by five stars (*****))
Cc1cn2cc(-c3cc(=O)n4cc(N5CCN[C@@H](C)C5)ccc4n3)cc(C3CC3)c2n1 [Compound 716, 2-(8-cyclopropyl-2-methylimidazo[1,2-a]pyridin-6-yl)-7-[(3S)-3-methylpiperazin-1-yl]-4H-pyrido[1,2-a]pyrimidin-4-one] | 246 to 250 | < 0.1 | *** (an EC1.5× between >0.3 μM and ≤1 μM is indicated by three stars (***)) | ***** (a fold increase >1.65 is indicated by five stars (*****))
Cc1cn2cc(-c3cc(=O)n4cc(N5C[C@@H](C)N[C@@H](C)C5)ccc4n3)cc(C3CC3)c2n1 [Compound 717, 2-(8-cyclopropyl-2-methylimidazo[1,2-a]pyridin-6-yl)-7-[(3R,5S)-3,5-dimethylpiperazin-1-yl]-4H-pyrido[1,2-a]pyrimidin-4-one] | 205 to 209 | 0.1 to 0.3 | *** (an EC1.5× between >0.3 μM and ≤1 μM is indicated by three stars (***)) | ***** (a fold increase >1.65 is indicated by five stars (*****))
Cc1cc(C2CCN(C3CC3)CC2)cn2c(=O)cc(-c3ccc4nn(C)cc4c3)nc12 [Compound 718, 7-(1-cyclopropylpiperidin-4-yl)-9-methyl-2-(2-methyl-2H-indazol-5-yl)-4H-pyrido[1,2-a]pyrimidin-4-one] | 226 to 231 | < 0.1 | *** (an EC1.5× between >0.3 μM and ≤1 μM is indicated by three stars (***)) | **** (a fold increase between >1.5 and ≤1.65 is indicated by four stars (****))
CCN1CCC(c2cc(C)c3nc(-c4ccc5nn(C)cc5c4)cc(=O)n3c2)CC1 [Compound 719, 7-(1-ethylpiperidin-4-yl)-9-methyl-2-(2-methyl-2H-indazol-5-yl)-4H-pyrido[1,2-a]pyrimidin-4-one] | 237 to 241 | < 0.1 | **** (an EC1.5x≤0.3 μM is indicated by four stars (****)) | **** (a fold increase between >1.5 and ≤1.65 is indicated by four stars (****))
Cc1cn2nc(-c3cc(=O)n4cc(N5CCNCC5)cc(C)c4n3)cc2c(C)n1 [Compound 720, 2-(4,6-dimethylpyrazolo[1,5-a]pyrazin-2-yl)-9-methyl-7-(piperazin-1-yl)-4H-pyrido[1,2-a]pyrimidin-4-one] | 254 to 264 | < 0.1 | **** (an EC1.5x≤0.3 μM is indicated by four stars (****)) | ***** (a fold increase >1.65 is indicated by five stars (*****))
